Literature values in patent publication US9781921B2, “Emulsifiable concentrate formulation” (Huntsman Corporation Australia Pty Limited, priority 2012, dated 2017).

System: mouse
Settings: summary of Table 2

**Q.** Which “Toxicity” value does the source give for CC(=O)OCc1ccccc1 [Benzyl Acetate, benzyl acetate] here?
**A.** The value was “relatively low toxicity”.
